In BindingDB's records for PubMed 35114538 (Institute For Pharmaceutical Research Saarland (Hips), 2022) one finds IC50 data, which are given here for 6 molecules.

Molecules are shown by their SMILES. Where a SMILES comes first, the peptide text is derived from it. Bridges are numbered along the chain shown (N, C = ends). Triazole bridges read from a SMILES are 1,4-linked. [ ]: non-standard residue; d: D form. Ala(indol-2-yl) = N[C@@H](Cc1cc2ccccc2[nH]1)C(=O)O; Dap(N3) = [N-]=[N+]=NC[C@H](N)C(=O)O; Aha = [N-]=[N+]=NCC[C@H](N)C(=O)O; Pra = C#CC[C@H](N)C(=O)O

This assay has as its target Carbon storage regulator homolog RsmA (Pseudomonas aeruginosa). Nature of the assay: Binding affinity towards Pseudomonas aeruginosa RsmA measured by fluorescence polarization assay. A general note: In fluorescence polarisation assays a small probe gives low polarisation when free and higher when bound to something large.

As to `CC(=O)N[C@H](C(=O)N[C@H]1Cc2cnnn2CC[C@@H](C(=O)N[C@@H](Cc2c[nH]c3ccccc23)C(N)=O)NC(=O)[C@H](CC(C)C)NC(=O)[C@H](CCC(=O)O)NC(=O)[C@H](CO)NC1=O)C(C)C`, the IC50 was determined as 44.4 µM.
With `CC(=O)N[C@H](C(=O)N[C@H]1CCn2nncc2C[C@@H](C(=O)N[C@@H](Cc2c[nH]c3ccccc23)C(N)=O)NC(=O)[C@H](CC(C)C)NC(=O)[C@H](CCC(=O)O)NC(=O)[C@H](CO)NC1=O)C(C)C`, the IC50 is 37 µM.
In turn, `CC(=O)N[C@H](C(=O)N[C@H]1CSSC[C@@H](C(=O)N[C@@H](Cc2cc3ccccc3[nH]2)C(N)=O)NC(=O)[C@H](CC(C)C)NC(=O)[C@H](CCC(=O)O)NC(=O)[C@H](CO)NC1=O)C(C)C` (Ac-VCSELC[Ala(indol-2-yl)]-NH2; disulfide 2-6) came in with an IC50 of 272 µM.
As for `CC(=O)N[C@H](C(=O)N[C@H]1Cn2cc(nn2)C[C@@H](C(=O)N[C@@H](Cc2c[nH]c3ccccc23)C(N)=O)NC(=O)[C@H](CC(C)C)NC(=O)[C@H](CCC(=O)O)NC(=O)[C@H](CO)NC1=O)C(C)C` (Ac-V[Dap(N3)]SEL[Pra]W-NH2; triazole 2-6), the IC50 was 22.8 µM.
The result for `CC(=O)N[C@H](C(=O)N[C@H]1Cc2cn(nn2)CC[C@@H](C(=O)N[C@@H](Cc2c[nH]c3ccccc23)C(N)=O)NC(=O)[C@H](CC(C)C)NC(=O)[C@H](CCC(=O)O)NC(=O)[C@H](CO)NC1=O)C(C)C` (Ac-V[Pra]SEL[Aha]W-NH2; triazole 2-6) reads 30.2 µM; that for `CC(=O)N[C@H](C(=O)N[C@H]1Cc2cn(nn2)C[C@@H](C(=O)N[C@@H](Cc2c[nH]c3ccccc23)C(N)=O)NC(=O)[C@H](CC(C)C)NC(=O)[C@H](CCC(=O)O)NC(=O)[C@H](CO)NC1=O)C(C)C` (Ac-V[Pra]SEL[Dap(N3)]W-NH2; triazole 2-6), 20 µM.

The term IC50 denotes the concentration at which inhibition is half-maximal. Read a high IC50 as lower potency.
